Measurements: a compilation of properties of binary mixtures (doi:10.1021/je200600p)

Test: xn = mol fraction of the nth substance listed
Conditions: 101 kPa

CCCC[n+]1ccn(C)c1.COP(=O)([O-])OC + CCO
viscosity [mPa·s]
Conditions	293.15 K	298.15 K	303.15 K	308.15 K	313.15 K	318.15 K	323.15 K	328.15 K	333.15 K
x2 = 0.201	396	284	210	–	119	92.7	73.3	59.06	48.16
x2 = 0.399	–	–	88.9	69.9	–	–	–	–	–
x2 = 0.6	42.1	34.3	28.18	23.56	19.87	16.97	14.59	12.66	11.06
x2 = 0.8	8.84	7.704	6.718	–	–	4.711	–	–	3.454

CC[n+]1ccn(C)c1.COP(=O)([O-])OC + CCO
viscosity [mPa·s]
Conditions	293.15 K	298.15 K	303.15 K	308.15 K	313.15 K	318.15 K	323.15 K	328.15 K	333.15 K
x2 = 0.199	190.6	142.7	109.5	85.8	68.4	55.53	45.75	–	32.27
x2 = 0.398	87.3	–	–	45	37.37	–	26.44	22.64	19.56
x2 = 0.598	27.63	–	19.83	17.05	14.8	–	11.36	10.04	8.951
x2 = 0.798	6.898	6.127	5.471	–	4.425	4.004	3.634	3.318	3.037

CCCC[n+]1ccn(C)c1.COP(=O)([O-])OC + CO
viscosity [mPa·s]
Conditions	293.15 K	298.15 K	303.15 K	308.15 K	313.15 K	318.15 K	323.15 K	328.15 K	333.15 K
x2 = 0.203	395	282	206	154.4	117.9	91.5	72.5	58.3	47.6
x2 = 0.404	150.1	113.3	87.5	–	54.86	–	36.49	30.37	25.51
x2 = 0.6	38.6	31.59	26.19	21.99	18.59	15.94	13.78	11.99	10.48
x2 = 0.8	–	6.267	5.536	4.923	–	3.972	3.665	3.338	3.051

CC[n+]1ccn(C)c1.COP(=O)([O-])OC + CO
viscosity [mPa·s]
Conditions	293.15 K	298.15 K	303.15 K	308.15 K	313.15 K	318.15 K	323.15 K	328.15 K	333.15 K
x2 = 0.198	197.6	147.8	112.7	88	70.2	56.83	46.73	39.02	32.96
x2 = 0.399	77.9	61.74	49.69	40.72	33.84	28.41	24.24	–	–
x2 = 0.598	24.32	–	17.64	15.26	13.28	11.67	10.3	9.132	8.188
x2 = 0.799	5.308	4.769	4.309	3.911	3.566	–	2.998	2.763	2.555

CCCC[n+]1ccn(C)c1.COP(=O)([O-])OC + O
viscosity [mPa·s]
Conditions	293.15 K	298.15 K	303.15 K	308.15 K	313.15 K	318.15 K	323.15 K	328.15 K	333.15 K
x2 = 0.201	594	410	–	212	157.5	119.7	92.7	73.1	58.55
x2 = 0.398	356	–	181.6	134.7	102	–	62.07	–	40.4
x2 = 0.601	148.3	108.5	–	62.54	48.93	39.05	31.67	26.05	21.69
x2 = 0.799	39.94	30.68	24.17	19.42	–	13.14	11.05	9.37	8.037

CC[n+]1ccn(C)c1.COP(=O)([O-])OC + O
viscosity [mPa·s]
Conditions	293.15 K	298.15 K	303.15 K	308.15 K	313.15 K	318.15 K	323.15 K	328.15 K	333.15 K
x2 = 0.198	–	–	–	119.7	93	–	59.37	48.61	–
x2 = 0.399	194.9	143.4	108.1	83.5	65.74	–	42.99	–	29.81
x2 = 0.6	98.6	74.5	57.7	45.45	36.43	29.68	24.55	20.58	17.46
x2 = 0.799	32.35	25.47	20.44	16.68	13.81	–	9.81	8.405	7.264
